Measurements taken from patent publication US20020123503A1, “Cabergoline pharmaceutical compositions and methods of use thereof” (priority 2000, published 2002).

Assay: Chemical stability of cabergoline and its tablets
Type: physicochemical
Settings: normal wet granulation techniques

Compound: C=CCN1C[C@H](C(=O)N(CCCN(C)C)C(=O)NCC)C[C@@H]2c3cccc4[nH]cc(c34)C[C@H]21 [cabergoline, 1((6-allylergolin-8.beta,-yl)-carbony.)-1-(3-(dimethylamino)propyl)-3ethylurea]
- degradation of the active ingredient: did degrade
